Among the test systems are TK-10; M14; PC-3; 786-0; A549; HOP-62; CAKI-1; COLO 205; NCI-H23; MDA-N; SW-620; LOX IMVI; MCF7; UACC-62; OVCAR-4; EKVX; UO-31; SF-295; NCI-H226; CCRF-CEM.
Test in all cases: inhibition of tumour cell growth, NCI panel, 48 h

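All cell lines were grown in 96-well plates and treated with compound for 48 hours. GI50 is the concentration that inhibits growth by half.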 Active and inactive are the calls of the source. Rule as the data show it: active = GI50 up to about 1.1 µM and inactive = higher. Where only a bound is given, the exact number is not on record here.

Regarding `CC(CC(=O)O)(CC(=O)O)C(=O)O`, the GI50 with TK-10, with M14, in the assay with PC-3, in the assay on 786-0, with A549 and in the assay with HOP-62 was > 100 µM (inactive) in each case. The GI50 in the assay on CAKI-1, in the assay with COLO 205, in the assay on NCI-H23, with MDA-N, in the assay on SW-620 and with LOX IMVI was > 100 µM (inactive) in each case. Further, the GI50 with MCF7, in the assay with UACC-62, with OVCAR-4, in the assay on EKVX, in the assay on UO-31 and in the assay on SF-295 was > 100 µM (inactive) each time.

As for `N#Cc1nn(C2OC(COC(=O)c3ccccc3)C(OC(=O)c3ccccc3)C2OC(=O)c2ccccc2)c2nc[nH]c(=O)c12` (configuration not stated), the GI50 in the assay with TK-10 was > 100 µM (inactive); with M14, 46.1 µM (inactive); in the assay on PC-3, 45.4 µM (inactive); in the assay with 786-0, 35.9 µM (inactive); with A549, 39.6 µM (inactive); in the assay with HOP-62, 90.2 µM (inactive). The GI50 in the assay with NCI-H226 is > 100 µM (inactive); in the assay on CAKI-1, 38.5 µM (inactive); in the assay on COLO 205, 27.4 µM (inactive); in the assay with NCI-H23, 24.4 µM (inactive); in the assay with CCRF-CEM, 18.5 µM (inactive); in the assay on MDA-N it was 49.2 µM (inactive). For the same compound, the GI50 in the assay on SW-620 was 63.1 µM (inactive); in the assay on MCF7, 93.5 µM (inactive); in the assay on UACC-62 it was > 100 µM (inactive); in the assay with OVCAR-4, 38.3 µM (inactive); in the assay on EKVX, 55.7 µM (inactive); in the assay on UO-31 it was 56.2 µM (inactive). In the assay on SF-295, the GI50 is 46.5 µM (inactive).

Regarding `COc1ccc(/C=C2/SC(c3ccc(Cl)cc3)N(NC(=O)CCCCCCCCC(=O)NN3C(=O)/C(=C\c4ccc(OC)c(OC)c4)SC3c3ccc(Cl)cc3)C2=O)cc1OC` (configuration not stated), the GI50 in the assay on TK-10 is 75.2 µM (inactive); in the assay with M14 it was 44.1 µM (inactive); in the assay with PC-3, 54.1 µM (inactive); with 786-0 it was 24.4 µM (inactive); in the assay on A549 it was 64.3 µM (inactive); with HOP-62, 25.8 µM (inactive). The GI50 in the assay with NCI-H226 was > 100 µM (inactive); with CAKI-1, 47.1 µM (inactive); with COLO 205 it was > 100 µM (inactive); with NCI-H23 it was 20.4 µM (inactive); in the assay on MDA-N it was 36.6 µM (inactive); in the assay on SW-620 it was > 100 µM (inactive). The GI50 is > 100 µM (inactive) in the assay with MCF7; 29.3 µM (inactive) with UACC-62; > 100 µM (inactive) with OVCAR-4; 23.6 µM (inactive) with EKVX; 27.7 µM (inactive) with UO-31; 21.4 µM (inactive) with SF-295.

In the case of `N=C(/C=C/c1ccc(-c2cn3cc(/C=C/C(=N)N4CCCC4)ccc3n2)cc1)N1CCCC1`, the GI50 with TK-10 is > 100 µM (inactive); in the assay on M14, > 100 µM (inactive); in the assay on PC-3 it was > 100 µM (inactive); in the assay on 786-0, 85.5 µM (inactive); in the assay with A549, 61.9 µM (inactive); in the assay on HOP-62 it was > 100 µM (inactive). For the same compound, the GI50 with NCI-H226, in the assay with CAKI-1, with COLO 205, in the assay with NCI-H23, with MDA-N and with SW-620 was > 100 µM (inactive) in each case. Moreover, the GI50 in the assay with MCF7, with UACC-62, in the assay with OVCAR-4, with EKVX, with UO-31 and with SF-295 was > 100 µM (inactive) each time.

For `CCCNC(=O)c1cc(NC(=O)c2cc(NC(=O)CCS(=O)(=O)OC)cn2C)cn1C`, the GI50 in the assay on TK-10 was 67.5 µM (inactive); in the assay on M14, 28.6 µM (inactive); in the assay on PC-3 it was 10.2 µM (inactive); in the assay on 786-0, 23.7 µM (inactive); in the assay on A549, > 91 µM (inactive); with HOP-62, 25.8 µM (inactive). The GI50 was > 52 µM (inactive) in the assay with CAKI-1; 6.64 µM (inactive) with COLO 205; 17.4 µM (inactive) with NCI-H23; 0.902 µM (active) in the assay with CCRF-CEM; 20.9 µM (inactive) in the assay on MDA-N; 6.27 µM (inactive) in the assay on SW-620. The GI50 with LOX IMVI is 14.6 µM (inactive); in the assay with MCF7 it was 20.5 µM (inactive); in the assay with UACC-62, 19.8 µM (inactive); with OVCAR-4, 26.5 µM (inactive); in the assay on EKVX, 51.1 µM (inactive); in the assay with UO-31, > 100 µM (inactive). For the same compound, the GI50 with SF-295 is > 69.8 µM (inactive).

Consider `CC1(C)O[C@H]2OC(CO)C(N=[N+]=[N-])[C@H]2O1` (some centres not stated), for which the GI50 with TK-10, in the assay on M14, in the assay with PC-3, with 786-0, with A549 and with HOP-62 was > 100 µM (inactive) in each case. For the same compound, the GI50 in the assay on CAKI-1, with COLO 205, with NCI-H23, in the assay on CCRF-CEM, in the assay on MDA-N and in the assay on SW-620 was > 100 µM (inactive) throughout. In addition, the GI50 with LOX IMVI, in the assay on MCF7, in the assay with UACC-62, in the assay with OVCAR-4, with EKVX and with UO-31 was > 100 µM (inactive) throughout. For the same compound, the GI50 with SF-295 is > 100 µM (inactive).

On to `O=C(O)Cc1cccc2c1OC(c1ccccc1)C(Cl)(C(=O)c1ccccc1)C2=O` (configuration not stated), for which the GI50 was 21.8 µM (inactive) in the assay on TK-10; 11.4 µM (inactive) with PC-3; 12.9 µM (inactive) in the assay on 786-0; 29.4 µM (inactive) in the assay with A549; 20.3 µM (inactive) in the assay on HOP-62; 30.1 µM (inactive) with NCI-H226. Besides, the GI50 in the assay on CAKI-1 is 17.8 µM (inactive); in the assay on COLO 205, > 10 µM (inactive); with NCI-H23 it was 16.1 µM (inactive); in the assay with CCRF-CEM, 3.21 µM (inactive); in the assay on MDA-N, 14.4 µM (inactive); in the assay with SW-620, 9.33 µM (inactive). For the same compound, the GI50 in the assay with LOX IMVI was 14.4 µM (inactive); with MCF7, 6.01 µM (inactive); in the assay with EKVX it was 21.5 µM (inactive); in the assay with UO-31, 17.4 µM (inactive); with SF-295 it was 23 µM (inactive).

On to `O=C1/C(=C/c2ccc(Cl)cc2)Oc2ccccc21`, for which the GI50 with TK-10 is 22.7 µM (inactive); with M14 it was 43.8 µM (inactive); in the assay on PC-3 it was > 10 µM (inactive); in the assay on 786-0, 15.7 µM (inactive); in the assay on A549, 18.7 µM (inactive); in the assay with HOP-62, 22.3 µM (inactive). Also, the GI50 in the assay on NCI-H226 is 38.1 µM (inactive); with CAKI-1, 2.76 µM (inactive); in the assay on COLO 205 it was 47.1 µM (inactive); with NCI-H23, 23.4 µM (inactive); with CCRF-CEM it was > 100 µM (inactive); with MDA-N it was 37.3 µM (inactive). Moreover, the GI50 with SW-620 is > 100 µM (inactive); in the assay with MCF7, 30.2 µM (inactive); with UACC-62, 58.6 µM (inactive); in the assay with OVCAR-4 it was 46.5 µM (inactive); with EKVX, 22.1 µM (inactive); with UO-31 it was 16.8 µM (inactive). Moreover, the GI50 in the assay with SF-295 is 56.5 µM (inactive).

These data come from ChEMBL document CHEMBL1201862, “PubChem BioAssay data set” (2004).
